Results on 14 compounds are retold here after patent US4211772A, “Benzopyran glycoside acetals and ketals” (Laboratoires Sarget, priority 1977, dated 1980).

In brackets after ≈: the same amount, converted by molar mass. Like-named read-outs stand apart in the source and are kept apart here.

In one series the target is T1, COMT (Rattus norvegicus, UniProt P22734).
T1 construct: The enzyme is extracted from rat liver; from tissue; host or cells: rat liver
T1 sequence (P22734 1-221 isoform P22734-2): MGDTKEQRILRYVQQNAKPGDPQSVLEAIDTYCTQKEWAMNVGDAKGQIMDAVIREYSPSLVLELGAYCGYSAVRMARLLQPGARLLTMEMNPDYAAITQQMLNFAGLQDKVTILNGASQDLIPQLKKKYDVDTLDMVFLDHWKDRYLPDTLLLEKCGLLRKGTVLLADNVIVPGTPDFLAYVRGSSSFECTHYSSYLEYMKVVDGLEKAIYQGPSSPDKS
The experiment in a line: Inhibition of COMT in vitro (enzyme from rat liver, 4-nitrocatechol substrate). The series is classed as biochemical. The note with it: in dimethylsulfoxide solution, read-out: percentages of inhibition (COMT); for inhibition at 1000 µM: 10^-3 mole/l; for inhibition at 100 µM: 10^-4 mole/l; for inhibition at 10 µM: 10^-5 mole/l. As for the experimental part:
Inhibition of COMT in vitro The enzyme is extracted from rat liver by the method described by Axelrod et al, J. Biol. Chem., 233, 702(1958); its activity is measured in the presence of S-adenosyl methionine and using as substrate 4-nitrocatechol by the method described by Lee et al, J. Pharm. Sci., 66(7), 986(1977). The quantity of 4-nitrocatechol consumed was determined spectrophotometrically at 520 nm in alkaline medium.

The target of the next series is T2, Aldose Reductase (Bos taurus, UniProt P16116).
T2 construct: The enzyme is extracted from beef eye lenses; from tissue; host or cells: beef eye lenses
The experiment in a line: Inhibition of aldose reductase in vitro (enzyme from beef eye lenses, glyceraldehyde substrate). In kind it is biochemical. The note with it: in DMF solution, read-out: percentages of inhibition (aldose reductase); for inhibition at 100 µM: 10^-4 mole/l; for inhibition at 10 µM: 10^-5 mole/l; for inhibition at 1 µM: 10^-6 mole/l. From the text:
Inhibition of Aldose Reductase In Vitro
The reoxidation of NADPH coupled to the enzymatic reaction was followed spectrophotometrically at 340 nm.

A short description of a further series: Solubilities in water. The note with it: water. In kind it is physicochemical.
In another series the test system is carragenin edema. Kind of series: Anti-inflammatory activity: carragenin edema test. In kind it is in vivo. The note with it: Rattus norvegicus, ip, saturated bicarbonate solution, read-out: % inhibition of carragenin edema; for inhibition in vivo at 50 mg/kg: 50 mg/kg i.p.; for inhibition in vivo at 100 mg/kg: 100 mg/kg i.p. As for the experimental part: Anti-inflammatory activity
This was determined by the carragenin edema test using male Wistar EOPS rats. Inflammation was induced by the injection of 0.1 ml of a suspension of 5% carragenin in physiological serum into the muscular bundle of the metatarsal region of the posterior paw of the animal. The test substance was administered i.p. in neutralized solution at the same time as the carragenin.
Edema was measured by plethysmometry at different times after the administration of the carragenin.
Tables IV and V show the percentages of inhibition as a function of time and of dosage for certain compounds of the present invention.
The above results were obtained for solutions of substantially alkaline
The reference experiments were performed using physiological serum brough
to a pH approximately the same as the pH of the solutions to be tested.

By inhibition is commonly meant the change of the read-out against control, counted positive when it falls. As for `C[C@@H]1O[C@@H](OC[C@H]2O[C@@H](Oc3c(-c4ccc(O)c(O)c4)oc4cc(O)cc(O)c4c3=O)[C@H](O)[C@@H](O)[C@@H]2O)[C@@H]2OC(C)(c3ccc(Cl)cc3)O[C@@H]2[C@H]1O` (stereo partly drawn) [No. 37, 3-O-(2,3-O,O-(α-methyl-p-chlorobenzylidene)-6-α-L-rhamnosyl-β-D-glucosyl) quercetin], at COMT, the inhibition at 1000 µM is 100%, the inhibition at 100 µM was determined as 74% and the inhibition at 10 µM was 27%. Further, at Aldose Reductase, the inhibition at 100 µM worked out at 100%, the inhibition at 10 µM was 59% and the inhibition at 1 µM was found to be 24%.

For `Cc1ccc(C2(C)O[C@@H]3[C@@H](O)[C@H](C)O[C@@H](OC[C@H]4O[C@@H](Oc5c(-c6ccc(O)c(O)c6)oc6cc(O)cc(O)c6c5=O)[C@H](O)[C@@H](O)[C@@H]4O)[C@@H]3O2)cc1` (stereo partly drawn) [No. 35, 3-O-(2,3-O,O-(α-methyl-p-methylbenzylidene)-6-α-L-rhamnosyl-β-D-glucosyl) quercetin], at COMT, the inhibition at 1000 µM turned out to be 90%, the inhibition at 100 µM was determined as 74% and the inhibition at 10 µM turned out to be 72%. Besides, on Aldose Reductase, the inhibition at 100 µM amounted to 100%, the inhibition at 10 µM was 72% and the inhibition at 1 µM came to 26%.

For `C[C@@H]1O[C@@H](Oc2c(-c3cc(O)c(O)c(O)c3)oc3cc(O)cc(O)c3c2=O)[C@H](O)[C@H](O)[C@H]1O` [Myricitrin, reference compound], at Aldose Reductase, the inhibition at 100 µM amounted to 83%, the inhibition at 10 µM was determined as 56% and the inhibition at 1 µM was 9%.

In the case of `C[C@@H]1O[C@@H](Oc2c(-c3ccc(O)c(O)c3)oc3cc(O)cc(O)c3c2=O)[C@H](O)[C@H](O)[C@H]1O` [Quercitrin, reference compound], in the series “Solubilities in water”, the Solubilities in water result is given as “insoluble”.

For `COc1ccc([C@@H]2CC(=O)c3c(O)cc(O[C@@H]4O[C@H](CO[C@@H]5O[C@@H](C)[C@H](O)[C@@H](O)[C@H]5O)[C@@H](O)[C@H](O)[C@H]4O)cc3O2)cc1O` [Hesperidin, reference compound], the solubility in the series “Solubilities in water” (read-out: Solubilities in water) turned out to be 0.02 mg/mL (≈ 32.8 µM).

For the compound `C[C@@H]1O[C@@H](OC[C@H]2O[C@@H](Oc3c(-c4ccc(O)c(O)c4)oc4cc(O)cc(O)c4c3=O)[C@H](O)[C@@H](O)[C@@H]2O)[C@@H]2OC3(CCC4CCCCC4C3)O[C@@H]2[C@H]1O` (stereo partly drawn) [No. 28, 3-O-(2,3-O,O-(2-perhydronaphthylidene)-6-α-L-rhamnosyl-β-D-glucosyl) quercetin], on COMT, the inhibition at 1000 µM amounted to 76%, the inhibition at 100 µM was 52% and the inhibition at 10 µM amounted to 0%. Moreover, on Aldose Reductase, the inhibition at 100 µM is 67%, the inhibition at 10 µM came to 62% and the inhibition at 1 µM stood at 0%.

Consider `C[C@@H]1O[C@@H](OC[C@H]2O[C@@H](Oc3c(-c4ccc(O)c(O)c4)oc4cc(O)cc(O)c4c3=O)[C@H](O)[C@@H](O)[C@@H]2O)[C@@H]2OC3(O[C@@H]2[C@H]1O)C1CC2CC(C1)CC3C2` (stereo partly drawn) [No. 33, 3-O-(2,3-O,O-adamantylidene-6-α-L-rhamnosyl-β-D-glucosyl)quercetin], for which, at COMT, the inhibition at 100 µM lay within 81 to 83% and the inhibition at 10 µM lay within 33 to 36%. At Aldose Reductase, the inhibition at 100 µM is 100%, the inhibition at 10 µM is 92% and the inhibition at 1 µM is 44%. On Aldose Reductase (10^-7 mole/l), the inhibition at 0.1 µM came to 7%.

Consider `C[C@@H]1O[C@@H](Oc2c(-c3cc(O)c(O)c(O)c3)oc3cc(O)cc(O)c3c2=O)[C@@H]2OC(C)(C)O[C@@H]2[C@H]1O` [No. 14, 3-O-(2,3-O,O-isopropylidene-α-L-rhamnosyl)myricitin], for which, at Aldose Reductase, the inhibition at 100 µM is 93%, the inhibition at 10 µM was found to be 83% and the inhibition at 1 µM was 11%.

Consider `O=c1c(O)c(-c2ccc(O)c(O)c2)oc2cc(O)cc(O)c12` [quercetin, reference compound], for which the inhibition in vivo at 50 mg/kg in the series on carragenin edema (1/2 h) was 0%; with carragenin edema (1 h, 1 h 1/2) it was 0%; in the series on carragenin edema (1 h, 1 h), 0%; in the series with carragenin edema (2 h, 2 h), 0%; in the series with carragenin edema (3 h, 3 h), 0%; in the series with carragenin edema (4 h, 4 h) it was 0%. Moreover, the inhibition in vivo at 50 mg/kg in the series with carragenin edema (5 h, 5 h) was determined as 0%; in the series with carragenin edema (6 h, 6 h), 0%. Moreover, the inhibition in vivo at 100 mg/kg in the series with carragenin edema (1/2 h) was 2%; in the series with carragenin edema (1 h, 1 h 1/2), 8%; in the series with carragenin edema (1 h, 1 h) it was 0%; in the series with carragenin edema (2 h, 2 h), 7%; in the series with carragenin edema (3 h, 3 h), 0%; in the series with carragenin edema (4 h, 4 h) it was 0%. The inhibition in vivo at 100 mg/kg stood at 0% with carragenin edema (5 h, 5 h) and 0% in the series on carragenin edema (6 h, 6 h).

For the compound `C[C@@H]1O[C@@H](OC[C@H]2O[C@@H](Oc3c(-c4ccc(O)c(O)c4)oc4cc(O)cc(O)c4c3=O)[C@H](O)[C@@H](O)[C@@H]2O)[C@@H]2OC(c3ccc(O)cc3)O[C@@H]2[C@H]1O` (stereo partly drawn) [No. 23, 3-O-(2,3-O,O-p-hydroxybenzylidene-6-α-L-rhamnosyl-β-D-glucosyl)quercetin], at COMT, the inhibition at 1000 µM stood at 80%, the inhibition at 100 µM amounted to 90% and the inhibition at 10 µM turned out to be 40%. Further, on Aldose Reductase, the inhibition at 100 µM was 80% and the inhibition at 10 µM was determined as 41%.

Regarding `O=c1ccc2cc(O[C@@H]3O[C@@H]4COC(c5ccc(O)c(O)c5)O[C@H]4[C@H](O)[C@H]3O)c(O)cc2o1` (stereo partly drawn) [No. 24, 6-O-(4,6-O,O-(3,4-dihydroxybenzylidene)-β-D-glucosyl) esculetol], on Aldose Reductase, the inhibition at 100 µM amounted to 71% and the inhibition at 10 µM was found to be 0%.

As for `COc1ccc(C2(C)O[C@@H]3[C@@H](O)[C@H](C)O[C@@H](OC[C@H]4O[C@@H](Oc5c(-c6ccc(O)c(O)c6)oc6cc(O)cc(O)c6c5=O)[C@H](O)[C@@H](O)[C@@H]4O)[C@@H]3O2)cc1` (stereo partly drawn) [No. 36, 3-O-(2,3-O,O-(α-methyl-p-methoxybenzylidene)-6-α-L-rhamnosyl-β-D-glucosyl) quercetin], on COMT, the inhibition at 1000 µM came out at 91% and the inhibition at 10 µM lay within 15 to 22%. At Aldose Reductase, the inhibition at 100 µM came to 100%, the inhibition at 10 µM amounted to 69% and the inhibition at 1 µM worked out at 22%.

In the case of `C[C@@H]1O[C@@H](O[C@H]2[C@H](Oc3cc(O)c4c(c3)O[C@H](c3ccc(O)cc3)CC4=O)O[C@H](CO)[C@@H](O)[C@@H]2O)[C@H](O)[C@H](O)[C@H]1O` [Naringin, reference compound], the inhibition at 100 µM at Aldose Reductase was found to be 33%.

As to `COc1ccc(C2O[C@@H]3[C@@H](O)[C@H](C)O[C@@H](OC[C@H]4O[C@@H](Oc5c(-c6ccc(O)c(O)c6)oc6cc(O)cc(O)c6c5=O)[C@H](O)[C@@H](O)[C@@H]4O)[C@@H]3O2)cc1` (stereo partly drawn) [No. 22, 3-O-(2,3-O,O-p-methoxybenzylidene-6-α-L-rhamnosyl-β-D-glucosyl)quercetin], at COMT, the inhibition at 1000 µM was in the range of 80 to 100%, the inhibition at 100 µM was 80 to 92% and the inhibition at 10 µM was found to be 45%. At Aldose Reductase, the inhibition at 100 µM amounted to 92%, the inhibition at 10 µM came out at 79% and the inhibition at 1 µM worked out at 0%.
